According to patent US8044089B2, “3-3-di-substituted-oxindoles as inhibitors of translation initiation” (President and Fellows of Harvard College, priority 2004, dated 2011):

Legend:
A549 lung cancer cells = test: SRB growth inhibition of A549 lung cancer cells; format: cell-based, human; details: A549 lung cancer cells; unit inferred; read-out: SRB (IC50 for growth inhibition of A549 lung cancer cells)
eIF2α = eIF2α phosphorylation measured by Western blot; format: cell-based; details: for eIF2α-P (phosphorylation of eIF2α measured by Western blot): unit or reference not given
From the text: (§1) As a non-limiting example, compounds 1272 and 1273 (set forth in Table 1) were synthesized starting from 3-bromoaniline, which upon condensation with hydroxylamine and chloral hydrate followed by concentrated sulfuric acid yielded an inseparable regioisomeric mixture of 4- and 6-bromo isatins. The addition of the two phenyl groups to the three position of the oxindole allowed easy chromatographic separation of the 4- and 6-bromo-3,3-diphenyloxindoles 1272 and 1273. Table 1 sets forth biological data for diaryloxindole compounds including, but not limited to 1272 and 1273. For Tables 1-14, Ca^2+ refers to Ca^2+ release from intracellular stores where a “+” denotes release and a “+/−” denotes inconclusive; eIF2α-P refers to phosphorylation of eIF2α measured by Western blot; SRB refers to the inhibitory concentration to reduce cell growth by 50% (IC50) for growth inhibition of A549 lung cancer cells; and n.d. is not determined.
(§2) Without intending to be bound by theory, the mechanism of action of translation initiation inhibitors is set forth in FIG. 1, and includes the depletion (complete or partial depletion) of intracellular calcium (Ca^2+) stores and phosphorylation of eIF2α. Compounds synthesized using the approaches described herein were screened for their ability to partially deplete intracellular Ca^2+ stores using FURA-2AM loaded cells (Benzaquen et al. (1995) Nature Medicine, 1:534, incorporated herein by reference in its entirety for all purposes). A limited subset of compounds were further screened for their ability to deplete endoplasmic reticulum (ER) Ca^2+. The Ca^2+ content of the ER was monitored using ER-targeted, Ca^2+ sensitive, recombinant proteins. These recombinant proteins emitted light by fluorescent resonance energy transfer (FRET) as a function of the Ca^2+ content of the medium. Such assays are previously described (Miyawaki, A.; Mizuno, H.; Llopis, J.; Tsien, R. Y.; Jalink, K. Cameleons as cytosolic and intra-organellar calcium probes, Oxford University Press: Oxford, London, 2001; pp 3-16, incorporated herein by reference in its entirety for all purposes). Compounds that depleted Ca^2+ were further evaluated for their ability to phosphorylate eIF2α. eIF2α phosphorylation was measured by Western blot analysis using the phospho-specific anti-eIF2α antibody, as previously described (Aktas et al. (1998) Proc. Natl. Acad. Sci. USA, 95:8280, incorporated herein by reference in its entirety for all purposes).

[1] = test system: intracellular Ca^2+ stores; test: Ca2+ release from intracellular stores (FURA-2AM loaded cells); format: cell-based; parameters: key to Ca^2+ (Ca^2+ release from intracellular stores): a “+” denotes release; a “+/−” denotes inconclusive
From the text: as §1, §2

Structure (SMILES)	IC50 (A549 lung cancer cells)	eIF2α-P (phosphorylation of eIF2α measured by Western blot) (eIF2α)	Ca^2+ (Ca^2+ release from intracellular stores) [1]	eIF2α phosphorylation (in words) (eIF2α)	Ca^2+ release / depletion of intracellular Ca^2+ (in words) [1]
Cc1cc(C2(c3ccccc3)C(=O)Nc3c(C(=O)O)cccc32)c(NS(C)(=O)=O)cc1O (stereo not shown) [Compound 1417]	> 20 µM	0.96	+	–	–
O=C1Nc2c(Br)cccc2C1(c1ccccc1)c1ccccc1 [Compound 1207]	3 µM	2.01	+/−	none of the compounds exhibited an increase in eIF2α phosphorylation relative to compound 1392	abrogated Ca^2+ depletion activity
CC(C)CC(NC(=O)COc1ccc(C(C)(C)C)cc1C1(c2ccccc2)C(=O)Nc2ccccc21)C(=O)NC(CO)Cc1ccccc1 (stereo not shown) [Compound 1400]	3 µM	3.70	+	–	–
CCCCc1ccc(O)c(C2(c3ccccc3)C(=O)Nc3ccccc32)c1 (stereo not shown) [Compound 1287]	3 µM	10.08	+	–	–
O=C1Nc2cccc(Br)c2C1(c1ccccc1)c1ccccc1 [Compound 1272]	8 µM	1.63	+	none of the compounds exhibited an increase in eIF2α phosphorylation relative to compound 1392	–
CC(C)(C)c1ccc(O)c(C2(c3cccc(Cl)c3)C(=O)Nc3ccccc32)c1 (stereo not shown) [Compound 1221]	3 µM	3.24	+	–	–
O=C1Nc2ccc(Br)cc2C1(c1ccccc1)c1ccccc1 [Compound 1205]	9 µM	2.05	+	none of the compounds exhibited an increase in eIF2α phosphorylation relative to compound 1392	–
CCc1cccc2c1NC(=O)C2(c1ccccc1)c1cc(C(C)(C)C)ccc1O (stereo not shown) [Compound 1256]	3 µM	1.3	+	–	–
Cc1cc(C2(c3ccccc3)C(=O)Nc3ccccc32)c(NS(=O)(=O)c2ccc(I)cc2)cc1O (stereo not shown) [Compound 1592]	3 µM	5.19	+	–	–
O=C1Nc2ccccc2C1(c1ccccc1)c1cc(C2CCCC2)ccc1O (stereo not shown) [Compound 1289]	3 µM	6.49	+	–	–
CC(C)(C)c1ccc(O)c(C2(c3ccccc3)C(=O)Nc3c(C(=O)O)cccc32)c1 (stereo not shown) [Compound 1408]	> 20 µM	2.08	+	–	–
CC(C)(C)c1ccc(O)c(C2(Cc3ccccc3)C(=O)Nc3ccccc32)c1 (stereo not shown) [Compound 1275]	13 µM	1.01	+/−	–	–
CCc1ccc2c(c1)C(c1ccccc1)(c1ccccc1)C(=O)N2 [Compound 1269]	> 20 µM	1.64	+	–	–
CC(C)(C)c1ccc(O)c(C2(c3ccccc3)C(=O)Nc3c(C(=O)O)ccc(Cl)c32)c1 (stereo not shown) [Compound 1418]	16 µM	7.47	+	–	–
COc1cccc(C2(c3ccccc3)C(=O)Nc3ccccc32)c1 (stereo not shown) [Compound 1293]	14 µM	1.30	+/−	–	–
COc1ccccc1C1(c2ccccc2)C(=O)Nc2ccccc21 (stereo not shown) [Compound 1292]	9 µM	1.04	+/−	–	–
O=C1Nc2ccc(F)cc2C1(c1ccccc1)c1ccccc1 [Compound 1350]	9 µM	1.16	+	–	–
O=C1Nc2ccccc2C1(c1ccc(Cl)cc1)c1ccccc1O (stereo not shown) [Compound 1208]	10 µM	1.42	+	–	–
CCc1cccc2c1C(c1ccccc1)(c1cc(C(C)(C)C)ccc1O)C(=O)N2 (stereo not shown) [Compound 1257]	10 µM	1.11	+	–	–
Cc1cc(C2(c3ccccc3)C(=O)Nc3c(C(=O)O)cccc32)c(NC(=O)OCC2c3ccccc3-c3ccccc32)cc1O (stereo not shown) [Compound 1394]	9 µM	8.21	+	–	–
CCc1ccc2c(c1)C(c1ccccc1)(c1cc(C(C)(C)C)ccc1O)C(=O)N2 (stereo not shown) [Compound 1254]	4 µM	2.12	+	–	–
CCc1cccc2c1C(c1ccccc1)(c1ccccc1)C(=O)N2 [Compound 1270]	> 20 µM	1.68	+	–	–
CCc1ccc2c(c1)NC(=O)C2(c1ccccc1)c1cc(C(C)(C)C)ccc1O (stereo not shown) [Compound 1258]	4 µM	3.13	+	–	–
CC(C)(C)c1ccc(O)c(C2(c3ccccc3)C(=O)Nc3ccc(Cl)cc32)c1 (stereo not shown) [Compound 1215]	3 µM	1.1	+/−	–	–
Cc1cccc(C2(c3cc(C(C)(C)C)ccc3O)C(=O)Nc3ccccc32)c1 (stereo not shown) [Compound 1224]	9 µM	1.74	+	–	–
O=C1Nc2ccc([N+](=O)[O-])cc2C1(c1ccccc1)c1ccccc1 [Compound 1265]	14 µM	2.35	+/−	–	–
C#CC1(c2cc(C(C)(C)C)ccc2O)C(=O)Nc2ccccc21 (stereo not shown) [Compound 1276]	13 µM	0.75	+	–	–
